This experiment relates to polymerase. It is filed as biochemical.

Results on 1 molecule are retold here after US20240392348A1, “METHODS AND COMPOSITIONS USEFUL FOR NUCLEIC ACID SEQUENCING” (Singular Genomics Systems, Inc., priority 2021, published 2024).

The structures appear in SMILES notation.

Excerpt: The incorporation score is a direct reflection of the incorporation half time; +++ refers to 4 to 14 seconds, ++ refers to 15 to 25 seconds, and + refers to greater than 25 seconds. The next base incorporation score reflects the incorporation half time for the next base, C refers to 20 to 100 seconds, B refers to 101 to 200 seconds, and A refers to greater than 200 seconds.

As to `O=C(O)CCCC[C@@H]1SC[C@@H]2NC(=O)N[C@@H]21` [biotin], for the setting “nucleobase not stated”, the incorporation score result is recorded as “+ (+ refers to greater than 25 seconds)”. Moreover, the incorporation halftime (same experimental conditions for biotin and rhodamine dye) came out at 28 s.
